# Measurements from patent US20040171681A1, “Medicines and medicinal kits” (priority 2001, published 2004).
# Test system: ocular hypertension models
# Assay: Test Example 1: ocular tension in rabbit ocular hypertension models (hypertonic saline) after eye drop solutions
# Type: in vivo, Domesticated rabbits
# Details: rabbits given 100 μl 5 w/v % hypertonic saline, 50 μl eye drop solution, mean ± standard error
# Protocol: Domesticated rabbits intravenously administered with 100 μl of a 5 w/v % hypertonic saline solution were used as ocular hypertension models. After intravenously administering the hypertonic saline solution, 50 μl of each of the eye drop solutions were administered and the ocular tension was measured 60 and 120 minutes thereafter.
smiles,measurement,setting,value
"CC(C)OC(=O)CCC/C=C\C[C@@H]1[C@@H](CC[C@@H](O)CCc2ccccc2)[C@H](O)C[C@@H]1O [Latanoprost, latanoprost]",Ocular tension change (mmHg) 60 minutes,60 minutes after,22.7 ± 1.2 mmHg
same,Ocular tension change (mmHg) 120 minutes,120 minutes after,9.8 ± 1.9 mmHg
